Assay results: US12617818B2, “Compositions and methods for modulating myosin subfragment-2 coiled coil stability and methods for using them” (UNIVERSITY OF NORTH TEXAS, priority 2020, dated 2026)
Entries after “also recorded” stand apart in the source; their conditions may differ.

Columns and labels:
Assay type in all cases: biochemical
[1] = target: skeletal muscle myosin S2 peptide (MYH2) (Homo sapiens, UniProt Q9UKX2); assay: GFS, uncoiling of skeletal myosin S2 peptide dimer; parameters: host or cells: chemical synthesis; conditions: for Force required to uncoil S2 molecule: length 10 nm, in presence of the anti-S2 peptide, ± SEM
skeletal muscle myosin S2 peptide (MYH2), sequence (Q9UKX2 918-953 limits assumed): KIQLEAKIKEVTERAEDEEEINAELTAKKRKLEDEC
Text: (§1) 3-aminopropyltriethoxysilane, acetone, coupling buffer (0.01 M pyridine in water with pH 6.0), 5% glutaraldehyde, quenching solution (1 M glycine in water with pH 7.0), blocking buffer (0.01 M Tris, 0.1% sodium azide, 0.1% bovine serum albumin, 0.15 M sodium chloride, and 0.001 M ethylenediaminetetraacetic acid with pH 7.0), wash buffer (0.01 M Tris, 0.1% sodium azide, 0.15 M sodium chloride, and 0.001 M ethylenediaminetetraacetic acid with pH 7.0) low salt buffer (0.1 M potassium chloride, 0.02 M imidazole, 5 mM magnesium chloride, with pH 7.0), 1-ethyl-3-(3-dimethyaminopropyl) carbodiimide, N-hydroxysuccinamide, iodoacetamide-succinimidyl ester, 8M urea solution (50 mM imidazole and 0.1 mM tris (2-carboxyethyl) phosphine with pH 7.0) monodisperse silica beads, glass slides, glass coverslips, vacuum grease, rabbit skeletal myosin, purified actin (G-actin), 1 μM human β-cardiac myosin S2 peptide, 1 μM human β-cardiac mutants myosin S2 peptide (E930del and E924K), 1 μM human skeletal myosin S2 peptide, 1 μM human smooth myosin S2 peptide, stabilizer peptide, and destabilizer peptide. A light microscope with an objective lens of 10× was mounted on an alt-azimuthal mount. A digital video camera of Sony, XCD-V60 was replaced with the ocular lenses. Extension springs on steel bracket held the alt-azimuthal mount suspended.
(§2) Gravitational force spectroscopy (GFS), is a single molecule force spectroscopy that utilizes gravitational force to measure absolute length of a single molecule at the given force calculated by the density of the bead suspending the molecule. This technique was discovered and developed in Root lab, which measures the forces in piconewton and sub-piconewton levels. Other than absolute length of a molecule, GFS measures force range required to uncoil, stretch or extend the molecule yielding a force-distance profile for the suspended molecule. Besides that, based on the force-distance profile, number of amino acids within the molecule can be calculated. […] The GFS allowed to test the flexibility or stability of a single molecule of myosin S2 peptide and also for the S2 peptides treated with anti-S2 peptides. Flexibility of myosin S2 is not dependent on assembly myosin as a thick filament or myosin in its single molecule form. The flexibility of myosin S2 region was reported to be similar in single molecule form or myosin in a thick filament assembly thus it could be conceived that the changes seen on flexibility of myosin S2 in presence of anti-S2 peptides would correlate to changes in myosin S2 flexibility for myosin in a thick filament form (Singh et al., 2018). The schematic diagram of GFS is shown below (schematic diagrams of GFS which has two modes: (FIG. 15) free-fall mode, (FIG. 16) rotational mode.
Free fall mode, another measurement variant of GFS which allows the user to get a force distance profile on a single molecule experiencing the gravitational force. Free fall mode allows a variable force by the virtue of gravity to be exerted on a single molecule. The GFS setup, light microscope with mounted camera on spring on alt-azimuthal platform, can be dropped. The start of free-fall mode force applied to the bead is zero or close to zero. […] As the platform goes towards equilibrium, trace of the acceleration decays. During the free fall mode, GFS has a single molecule which is suspended within an immobile edge and mobile bead will now experience the variable force which would be calculated by the product of mass of the bead and the acceleration of the GFS.
The product of the GFS acceleration and the mass of the bead will provide a force trace for the single molecule tethered between the immobile edge and mobile bead. The image processing would provide distance trace for the single molecule experiencing the free fall by the GFS. When this force trace is aligned with distance trace will yield the extension or the stretch experience by the single molecule under variable forces. […]

[2] = target: T1, smooth muscle myosin S2 peptide (MYH11) (Homo sapiens, UniProt P35749); assay: GFS, uncoiling of smooth myosin S2 peptide dimer; conditions: for impact on mechanical stability of smooth muscle myosin S2 peptide: force distance curve vs control; for Force required to uncoil S2 molecule: length 10 nm, in presence of the anti-S2 peptide, ± SEM
T1 construct: host or cells: chemical synthesis
T1 sequence (P35749 with tags, fused parts or gaps): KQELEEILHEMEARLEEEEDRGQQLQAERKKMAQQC
Text: as §1
as §2, with “The flexibility of myosin S2 region was reported to be similar in single molecule form or myosin in a thick filament assembly thus it could be conceived that the changes seen on flexibility of myosin S2 in presence of anti-S2 peptides would correlate to changes in myosin S2 flexibility for myosin in a thick filament form (Singh et al., 2018). The schematic diagram of GFS is shown below (schematic diagrams of GFS which has two modes: (FIG. 15) free-fall mode, (FIG. 16) rotational mode.” left out
(§3) Free fall mode, another measurement variant of GFS which allows the user to get a force distance profile on a single molecule experiencing the gravitational force. […] During the free fall mode, GFS has a single molecule which is suspended within an immobile edge and mobile bead will now experience the variable force which would be calculated by the product of mass of the bead and the acceleration of the GFS. […]

[3] = target: T2, cardiac muscle myosin S2 peptide (MYH7) (Homo sapiens, UniProt P12883); assay: Gravitational force spectroscopy (GFS), uncoiling of cardiac myosin S2 peptide dimer; conditions: for Force required to uncoil S2 molecule: length 10 nm, in presence of the anti-S2 peptide, ± SEM
T2 construct: host or cells: chemical synthesis
T2 sequence (P12883 912-947 limits assumed): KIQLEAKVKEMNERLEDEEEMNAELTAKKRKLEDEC
Text: as §1, §2
GFS set up assembly contains a light microscope that is horizontally mounted on an alt-azimuthal which is suspended with help of extension springs on a steel bracket. To capture both images and videos of suspended molecule, a digital video camera has been placed instead of the ocular lenses. The molecule of interest is tethered between an immobile edge of glass coverslip placed on a glass slide and mobile silica or glass bead. Slide with the molecule of interest in inserted into the light microscope component of GFS. The bead with molecule of interest is imaged through the microscope and then oriented to the direction of gravity vector to allow the maximal gravitation force exerted on to the bead. GFS has two modes, one is called rotational mode or an equilibrium mode which measures the absolute length of a single molecule and the second one is called free fall mode which measures the force required to unwind, uncoil, stretch or extend the molecule of interest.
Free fall mode, another measurement variant of GFS which allows the user to get a force distance profile on a single molecule experiencing the gravitational force. […]

[4] = target: T3, cardiac muscle myosin S2 peptide E930del (MYH7 E930del) (Homo sapiens, UniProt P12883, DEL931-931); assay: GFS, uncoiling of E930del cardiac myosin S2 peptide dimer; conditions: length 10 nm; in presence of stabilizer; ± SEM
T3 construct: host or cells: chemical synthesis
T3 sequence (P12883 with tags, fused parts or gaps DEL931-931): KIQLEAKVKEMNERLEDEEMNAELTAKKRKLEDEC
Text: as §1
as §2, with “The flexibility of myosin S2 region was reported to be similar in single molecule form or myosin in a thick filament assembly thus it could be conceived that the changes seen on flexibility of myosin S2 in presence of anti-S2 peptides would correlate to changes in myosin S2 flexibility for myosin in a thick filament form (Singh et al., 2018). The schematic diagram of GFS is shown below (schematic diagrams of GFS which has two modes: (FIG. 15) free-fall mode, (FIG. 16) rotational mode.” left out
as §3

Row | SMILES | Force required to uncoil S2 molecule [1] [pN] | Force required to uncoil S2 molecule ([1]; listed as destabilizer peptide) | decrease of force required to uncoil the coiled coil ([1]; vs absence of anti-S2 peptide) [times] | impact on mechanical stability of smooth muscle myosin S2 peptide [2] | Force required to uncoil S2 molecule [2] [pN] | Force required to uncoil S2 molecule [3] [pN] | Force required to uncoil S2 molecule ([3]; listed as destabilizer) | decrease of force required to uncoil the coiled coil ([3]; vs absence of anti-S2 peptide) [times] | increase of force required to uncoil the coiled coil ([1]; vs absence of anti-S2 peptide) [times] | Force required to uncoil S2 molecule ([3]; listed as stabilizer) | increase of force required to uncoil the coiled coil ([3]; vs absence of anti-S2 peptide) [times] | Force required to uncoil S2 molecule [4] [pN]
1 | CSCC[C@H](NC(=O)[C@H](CCC(=O)O)NC(=O)[C@H](CCCNC(=N)N)NC(=O)[C@H](CCC(=O)O)NC(=O)[C@H](CC(=O)O)NC(=O)[C@H](CCC(=O)O)NC(=O)[C@H](CC(C)C)NC(=O)[C@H](CCCNC(=N)N)NC(=O)[C@H](CCC(=O)O)NC(=O)[C@H](CC(N)=O)NC(=O)[C@H](CCSC)NC(=O)[C@@H](N)CCC(=O)O)C(=O)N[C@@H](CCCCN)C(=O)N[C@@H](C)C(=O)N[C@@H](CCC(=O)O)C(=O)N[C@@H](CC(C)C)C(=O)N[C@H](C(=O)N[C@@H](C)C(=O)N[C@@H](CCCCN)C(=O)O)[C@@H](C)O [Destabilizer] | 1.84E−01 ± 4.00E−02 | 1.84×10^−1±4.00×10^−2 pN | 2.45 | do not have an impact | 4.51E−01 ± 2.98E−02 | 4.36E−01 ± 3.30E−02 | 4.36×10^−1±3.30×10^−2 pN | 1.98 | – | – | – | –
2 | C[C@H](NC(=O)[C@H](CCCCN)NC(=O)[C@H](Cc1ccccc1)NC(=O)[C@H](CCCCN)NC(=O)[C@H](CCCCN)NC(=O)[C@H](CCCCN)NC(=O)[C@H](CCCCN)NC(=O)[C@H](CCCCN)NC(=O)[C@H](CCCCN)NC(=O)[C@H](CCCCN)NC(=O)[C@@H](N)CCCCN)C(=O)N[C@@H](CCCCN)C(=O)N[C@@H](CCCCN)C(=O)N[C@@H](CCCCN)C(=O)N[C@@H](CCCCN)C(=O)N[C@@H](CCCCN)C(=O)N[C@@H](CCCCN)C(=O)O [Stabilizer] | 6.28E−01 ± 4.32E−02 | – | – | do not have an impact; also recorded: no effect | 4.96E−01 ± 7.60E−02 | 1.55E+00 ± 1.46E−01 | – | – | 1.40 | 1.55±1.46×10^−1 pN | 1.80 | 1.07E+00 ± 8.28E−02
